Assay results reported in ChEMBL document CHEMBL3046556, “Microwave-assisted synthesis and antimicrobial screening of new imidazole derivatives bearing 4-thiazolidinone nucleus” (2013).
Converted amounts (≈) assume the structure as drawn. The source made the active and inactive calls. The rule behind the calls is not given here.

Key:
[1] = system: Candida albicans; assay: Antifungal activity against Candida albicans MTCC 227 assessed as growth inhibition at 12.5 to 1000 ug/mL after 48 hr by broth dilution method; assay type: functional, organism-based
[2] = system: Escherichia coli; assay: Antibacterial activity against Escherichia coli MTCC 443 assessed as growth inhibition at 12.5 to 1000 ug/mL after 24 hr by NCCLS broth dilution method; assay type: functional, organism-based
[3] = system: Aspergillus clavatus; assay: Antifungal activity against Aspergillus clavatus MTCC 1323 assessed as growth inhibition at 12.5 to 1000 ug/mL after 48 hr by broth dilution method; assay type: functional, organism-based
[4] = system: Pseudomonas aeruginosa; assay: Antibacterial activity against Pseudomonas aeruginosa MTCC 1688 assessed as growth inhibition at 12.5 to 1000 ug/mL after 24 hr by NCCLS broth dilution method; assay type: functional, organism-based
[5] = system: Staphylococcus aureus; assay: Antibacterial activity against Staphylococcus aureus MTCC 96 assessed as growth inhibition at 12.5 to 1000 ug/mL after 24 hr by NCCLS broth dilution method; assay type: functional, organism-based
[6] = system: Aspergillus niger; assay: Antifungal activity against Aspergillus niger MTCC 282 assessed as growth inhibition at 12.5 to 1000 ug/mL after 48 hr by broth dilution method; assay type: functional, organism-based
[7] = system: Streptococcus pyogenes; assay: Antibacterial activity against Streptococcus pyogenes MTCC 442 assessed as growth inhibition at 12.5 to 1000 ug/mL after 24 hr by NCCLS broth dilution method; assay type: functional, organism-based
[8] = system: Staphylococcus aureus; assay: Antibacterial activity against Staphylococcus aureus MTCC 96 assessed as growth inhibition after 24 hr by NCCLS broth dilution method; assay type: functional; details: MTCC 96, 24 h
[9] = system: Streptococcus pyogenes; assay: Antibacterial activity against Streptococcus pyogenes MTCC 442 assessed as growth inhibition after 24 hr by NCCLS broth dilution method; assay type: functional; details: MTCC 442, 24 h
[10] = system: Pseudomonas aeruginosa; assay: Antibacterial activity against Pseudomonas aeruginosa MTCC 1688 assessed as growth inhibition after 24 hr by NCCLS broth dilution method; assay type: functional; details: MTCC 1688, 24 h
[11] = system: Escherichia coli; assay: Antibacterial activity against Escherichia coli MTCC 443 assessed as growth inhibition after 24 hr by NCCLS broth dilution method; assay type: functional; details: MTCC 443, 24 h

Row | Compound | growth inhibition (GI) [1] | growth inhibition (GI) [2] | growth inhibition (GI) [3] | growth inhibition (GI) [4] | growth inhibition (GI) [5] | growth inhibition (GI) [6] | growth inhibition (GI) [7] | MIC [8] [µg/mL] | MIC [9] [µg/mL] | MIC [10] [µg/mL] | MIC [11] [µg/mL]
1 | CC1=N/C(=C/c2ccccc2)C(=O)N1c1ccc(/C(C)=N/NC(N)=S)cc1 | Active | inactive | Active | inactive | inactive | Active | inactive | – | – | – | –
2 | CC1=N/C(=C/c2ccccc2C)C(=O)N1c1ccc(/C(C)=N/NC(N)=S)cc1 | Active | inactive | Active | inactive | inactive | Active | inactive | – | – | – | –
3 | CC1=N/C(=C/c2ccc(F)cc2)C(=O)N1c1ccc(/C(C)=N/NC(N)=S)cc1 | Active | inactive | Active | inactive | inactive | Active | inactive | – | – | – | –
4 | CC(=O)c1ccc(N2C(=O)/C(=C\c3ccccc3)N=C2C)cc1 | inactive | inactive | inactive | inactive | inactive | inactive | inactive | – | – | – | –
5 | CC1=N/C(=C/c2ccccc2O)C(=O)N1c1ccc(/C(C)=N/NC(N)=S)cc1 | Active | inactive | Active | – | – | Active | – | 500 (≈ 1270 µM) | 500 (≈ 1270 µM) | 500 (≈ 1270 µM) | –
6 | CC1=N/C(=C/c2cccc(O)c2)C(=O)N1c1ccc(/C(C)=N/NC(N)=S)cc1 | Active | – | Active | inactive | – | Active | inactive | 500 (≈ 1270 µM) | – | – | 1000 (≈ 2540 µM)
7 | CC(=O)c1ccc(N2C(=O)/C(=C\c3cccc(C)c3)N=C2C)cc1 | inactive | inactive | inactive | inactive | inactive | inactive | inactive | – | – | – | –
8 | CC1=N/C(=C/c2cccc(C)c2)C(=O)N1c1ccc(/C(C)=N/NC(N)=S)cc1 | Active | – | Active | inactive | – | Active | inactive | 500 (≈ 1280 µM) | – | – | 1000 (≈ 2550 µM)
9 | CC(=O)c1ccc(N2C(=O)/C(=C\c3ccc(F)cc3)N=C2C)cc1 | inactive | inactive | inactive | inactive | inactive | inactive | inactive | – | – | – | –
10 | COc1ccccc1/C=C1/N=C(C)N(c2ccc(/C(C)=N/NC(N)=S)cc2)C1=O | Active | inactive | Active | inactive | inactive | Active | inactive | – | – | – | –
11 | CC(=O)c1ccc(N2C(=O)/C(=C\c3ccccc3Cl)N=C2C)cc1 | inactive | inactive | inactive | inactive | inactive | inactive | inactive | – | – | – | –
12 | CC1=N/C(=C/c2ccc(O)cc2)C(=O)N1c1ccc(/C(C)=N/NC(N)=S)cc1 | Active | inactive | Active | – | – | Active | – | 500 (≈ 1270 µM) | 500 (≈ 1270 µM) | 500 (≈ 1270 µM) | –
13 | COc1ccc(/C=C2/N=C(C)N(c3ccc(C(C)=O)cc3)C2=O)cc1 | inactive | – | inactive | inactive | – | inactive | inactive | 1000 (≈ 2990 µM) | – | – | 1000 (≈ 2990 µM)
14 | CC1=N/C(=C/c2ccccc2[N+](=O)[O-])C(=O)N1c1ccc(/C(C)=N/NC(N)=S)cc1 | Active | inactive | Active | inactive | inactive | Active | inactive | – | – | – | –
15 | CC(=O)c1ccc(N2C(=O)/C(=C\c3ccc(Cl)cc3)N=C2C)cc1 | inactive | inactive | inactive | inactive | inactive | inactive | inactive | – | – | – | –
16 | COc1ccc(/C=C2/N=C(C)N(c3ccc(/C(C)=N/NC(N)=S)cc3)C2=O)cc1 | Active | inactive | Active | – | – | Active | – | 500 (≈ 1230 µM) | 500 (≈ 1230 µM) | 500 (≈ 1230 µM) | –
17 | CC1(C)S[C@@H]2[C@H](NC(=O)[C@H](N)c3ccccc3)C(=O)N2[C@H]1C(=O)O [AMPICILLIN] | – | – | – | – | – | – | – | 100 (≈ 286 µM) | 100 (≈ 286 µM) | 100 (≈ 286 µM) | 250 (≈ 715 µM)
18 | CC1=N/C(=C/c2ccc(Cl)cc2)C(=O)N1c1ccc(/C(C)=N/NC(N)=S)cc1 | Active | inactive | Active | inactive | inactive | Active | inactive | – | – | – | –
19 | CC(=O)c1ccc(N2C(=O)/C(=C\c3ccccc3F)N=C2C)cc1 | inactive | inactive | inactive | inactive | inactive | inactive | inactive | – | – | – | –
20 | CC(=O)c1ccc(N2C(=O)/C(=C\c3ccccc3C)N=C2C)cc1 | inactive | inactive | inactive | inactive | inactive | inactive | inactive | – | – | – | –
21 | CC(=O)c1ccc(N2C(=O)/C(=C\c3ccccc3[N+](=O)[O-])N=C2C)cc1 | inactive | inactive | inactive | inactive | inactive | inactive | inactive | – | – | – | –
22 | CC1=N/C(=C/c2ccc([N+](=O)[O-])cc2)C(=O)N1c1ccc(/C(C)=N/NC(N)=S)cc1 | Active | inactive | Active | inactive | inactive | Active | inactive | – | – | – | –
23 | CC(=O)c1ccc(N2C(=O)/C(=C\c3cccc(O)c3)N=C2C)cc1 | inactive | inactive | inactive | inactive | inactive | inactive | inactive | – | – | – | –
24 | CC(=O)c1ccc(N2C(=O)/C(=C\c3ccc([N+](=O)[O-])cc3)N=C2C)cc1 | inactive | inactive | inactive | inactive | inactive | inactive | inactive | – | – | – | –
25 | CC1=N/C(=C/c2ccc(C)cc2)C(=O)N1c1ccc(/C(C)=N/NC(N)=S)cc1 | Active | inactive | Active | – | – | Active | – | 500 (≈ 1280 µM) | 500 (≈ 1280 µM) | 500 (≈ 1280 µM) | –
26 | CC1=N/C(=C/c2ccccc2Cl)C(=O)N1c1ccc(/C(C)=N/NC(N)=S)cc1 | Active | inactive | Active | inactive | inactive | Active | inactive | – | – | – | –
27 | CC1=N/C(=C/c2ccccc2F)C(=O)N1c1ccc(/C(C)=N/NC(N)=S)cc1 | Active | inactive | Active | inactive | inactive | Active | inactive | – | – | – | –
